Reference: patent publication US10858388B2, “Selective progesterone receptor modulator (SPRM) regimen” (BAYER PHARMA AKTIENGESELLSCHAFT, priority 2015, dated 2020)

Key:
Format in all cases: in vivo, human
[1] = tested on: subjects with uterine fibroids; experiment: Study 15788: amenorrhea, 3-month treatment (Example 4)
Procedure: A randomized, parallel-group, double-blind, placebo-controlled, multi-center study to assess efficacy of different doses of Compound 1 where primary efficacy variable is Amenorrhea, in subjects with uterine fibroids over a 3-month treatment [1×12 weeks/84 days]
Doses: 0.5 mg, 1 mg, 2 mg, or 4 mg once daily
(§1) Route of administration: Oral
Duration of treatment: 1×12 weeks (84 days)
Women, 18 to 50 years old, with uterine fibroids documented by transvaginal or abdominal ultrasound at screening with at least 1 uterine fibroid with largest diameter 3 cm and Heavy Menstrual Bleeding (HMB) 80 ml were eligible for enrolment in the study.
Eligible subjects were equally randomized to one of the treatment groups (Placebo, 0.5 mg, 1 mg, 2 mg, or 4 mg Compound 1). Treatment was started during the first week of the menstrual cycle following randomization. The treatment period consisted of 12 weeks (84 days) of daily tablet intake.
Efficacy Measurement: • daily documentation of bleeding intensity (electronic diary or eDiary) • Menstrual Pictogram MP (electronic diary or eDiary) • collection of sanitary products for analysis of menstrual blood loss with alkaline hematin (AH) method
(§2) Onset of amenorrhea is defined by the first day for which the menstrual blood loss (assessed by MP) for all subsequent 28-day periods up to the end of the treatment period is less than 2 ml.
The primary objective estimates the dose-response curve based on the primary endpoint women with amenorrhea by dose.

[2] = tested on: subjects with uterine fibroids; experiment: Study 17541: amenorrhea, 3-month vs 6-month treatment (Example 5)
Procedure: A randomized, parallel-group, double-blind, placebo-controlled, multi-center study to assess efficacy of a dose of 2 mg of Compound 1 where primary efficacy variable is Amenorrhea, in subjects with uterine fibroids over 3 months [1×12 weeks] and 6 months [2×12 weeks without treatment break].
Test drug: Compound 1 Doses: 2 mg, once daily
as §1
Duration of treatment: 2×12 weeks without treatment break
(§3) Women, 18 to 50 years old, with uterine fibroids documented by transvaginal or abdominal ultrasound at screening with at least 1 uterine fibroid with largest diameter 3 cm and Heavy Menstrual Bleeding (HMB) 80∃ ml were eligible for enrolment in the study.
Eligible subjects will be equally randomized to one of the treatment groups (Placebo, 2 mg of Compound 1). Treatment will start during the first week of the menstrual cycle following randomization. The treatment period will consist of 1×12 and 2×12 weeks (84 days) of daily tablet intake. • Treatment A1: 2 mg of Compound 1 (12 weeks), 2 mg of Compound 1 (12 weeks) without treatment break • Treatment A2: Placebo (12 weeks), 2 mg of Compound 1 (12 weeks).
Efficacy Measurement: • daily documentation of bleeding intensity (electronic diary or eDiary) • Menstrual Pictogram MP (electronic diary or eDiary).
as §2
The primary endpoint amenorrhea (no/yes) was based on the bleeding intensity recorded in the eDiary/Daily bleeding diary.

[3] = tested on: subjects with uterine fibroids; experiment: Study 17541: endometrium thickness, 3-month vs 6-month treatment without break (Example 6); conditions: 2 mg once daily, 13 subjects, blinded, preliminary data, 3 or 6 months without break
Procedure: A randomized, parallel-group, double-blind, placebo-controlled, multi-center study to assess efficacy of a dose of 2 mg of Compound 1 where primary efficacy variable is Endometrium thickness, in subjects with uterine fibroids over 3-month vs 6-month with or without treatment break.
as §1
Duration of treatment: 2×12 weeks (A1) or 1×12 weeks (A2) without treatment break
as §3
Number of Women: 13 subjects having finished the treatment so far.
Eligible subjects were equally randomized to one of the treatment groups (Placebo, 2 mg of Compound 1). Treatment period was started during the first three days of the bleeding episode following randomization or ongoing at randomization. The treatment period will consist of 3 months (12 weeks) or 6 months [2×12 weeks (84 days)] of daily tablet intake without treatment break. • Treatment A1: 2 mg of Compound 1 (12 weeks), 2 mg of Compound 1 (12 weeks). • Treatment A2: Placebo (12 weeks), 2 mg of Compound 1 (12 weeks).
After the end of treatment period, subjects were followed up for 12 weeks. […]

[4] = tested on: subjects with uterine fibroids; experiment: Study 17541: endometrium thickness, 2x3-month treatment with break period (Example 7); conditions: 2 mg once daily, 6 subjects, blinded, 2x12 weeks with 1 bleeding episode break or 1x12 weeks
Procedure: A randomized, parallel-group, double-blind, placebo-controlled, multi-center study to assess efficacy of a dose of 2 mg of Compound 1 where primary efficacy variable is Endometrial thickness, in subjects with uterine fibroids over 2×3-month with break period allowing bleeding episode.
as §1
Duration of treatment: 2×3-month [2×12 weeks]+one bleeding episode (B1) and 1×3-month [1×12 weeks] (B2) without treatment break
Women, 18 to 50 years old, with uterine fibroids documented by transvaginal or abdominal ultrasound at screening with at least 1 uterine fibroid with largest diameter 3.0 cm and heavy menstrual bleeding (HMB) […] were eligible for enrolment in the study.
Number of Women: 6 subjects that have finalized the treatment
Eligible subjects were equally randomized to one of the treatment groups (Placebo, 2 mg of Compound 1). Treatment period was started during the first three days of the bleeding episode following randomization or ongoing at randomization. The treatment period was consisting of daily tablet intake without treatment break. • Treatment B1: 2 mg of Compound 1 (12 weeks), 1 bleeding episode, 2 mg of Compound 1 (12 • weeks). • Treatment B2: Placebo (12 weeks), 1 bleeding episode, 2 mg of Compound 1 (12 weeks).
Efficacy Measurement: • endometrial biopsies, • cervical smear, • transvaginal ultrasound (TUV) (endometrial thickness, ovaries). […]

[5] = tested on: patient diagnosed with Uterine Fibroids; experiment: Long term treatment of patients with Compound 1, summary findings
Excerpt: (§4) Compound 1 is a potent Selective Progesterone Receptor Modulator (SPRM) and more particularly a competitive Progesterone Receptor (PR) antagonist creating alternatives for the treatment of Uterine Fibroids. […] Amenorrhea corresponds to the major objective of the treatment i.e. control of excessive uterine bleeding.

healthy subjects = experiment: Amenorrhea in healthy subjects
Excerpt: as §4

[6] = 6 months (2x12 weeks without treatment break)

C[C@]12C[C@H](c3ccc(S(C)(=O)=O)cc3)C3=C4CCC(=O)C=C4CC[C@H]3[C@@H]1CC[C@@]2(O)C(F)(F)C(F)(F)F [Compound 1, (11β,17β)-17-Hydroxy-11-[4-(methylsulphonyl)phenyl]-17-(pentafluoroethyl)estra-4,9-dien-3-one]
Amenorrhea (<2 ml) at EoT (%) 12 Weeks ([1]; 0.5 mg once daily oral): 66.63% | Amenorrhea (<2 ml) at EoT (%) 12 Weeks ([1]; 1 mg once daily oral): 87.09% | Amenorrhea (<2 ml) at EoT (%) 12 Weeks ([1]; 2 mg once daily oral): 91.65% | Amenorrhea (<2 ml) at EoT (%) 12 Weeks ([1]; 4 mg once daily oral): 89.81% | Induction of amenorrhea ([1]; 0.5-4 mg once daily, 12 weeks): dose-dependent induction of amenorrhea | Heavy menstrual bleeding ([1]; 0.5-4 mg once daily, 12 weeks, FIG. 3): reduced quickly and sustainably | Subjects achieving amenorrhea during treatment ([1]; 12 weeks, FIG. 3): Most subjects even achieved amenorrhea already during treatment | Amenorrhea until 6 months of treatment ([2]; 2 mg once daily, 2x12 weeks without treatment break, preliminary data): amenorrhea observed after 1×12 weeks is maintained | Rate of subjects with endometrial thickness above 18 mm [2, 6]: not found to be increased | Rates of adverse events with regard to ovarian cysts or bleeding [2, 6]: do not show increased rates of adverse events | Endometrial size [3]: ≤ 18 mm | Treatment-emergent critical endometrial findings [3]: no treatment-emergent critical endometrial findings occurred | Endometrial size [4]: ≤ 18 mm | Treatment-emergent critical endometrial findings [4]: no treatment-emergent critical endometrial findings occurred | Amenorrhea [5]: observed at early stage and with high intensity | Endometrial hypertrophy (TEAE) [5]: no endometrial hypertrophy was reported | Major safety findings [5]: no major safety findings were reported | Ovulation inhibition [5]: ovulation inhibition was observed | Pelvic pain [5]: found to be reduced | Uterine fibroids size [5]: clearly reduced | Amenorrhea (healthy subjects): Amenorrhea was observed
